Converted amounts (≈) assume the structure as drawn.
Tests used:
Assay in all cases: microbe, parasite or virus in culture
Type in all cases: cell-based
[1] = tested on: M. tuberculosis H37Rv isogenic strain resistant to kanamycin (KMr); details: Mycobacterium tuberculosis, read-out: MABA MIC KMr
[2] = tested on: M. tuberculosis H37Rv isogenic strain resistant to streptomycin (SMr); details: Mycobacterium tuberculosis, read-out: MABA MIC SMr
[3] = tested on: M. tuberculosis H37Rv isogenic strain resistant to isoniazid (INHr); details: Mycobacterium tuberculosis, read-out: MABA MIC INHr
[4] = tested on: M. tuberculosis H37Rv isogenic strain resistant to rifampin (RMPr); details: Mycobacterium tuberculosis, read-out: MABA MIC RMPr
[5] = tested on: M. tuberculosis H37Rv isogenic strain resistant to moxifloxacin (MOXr); details: Mycobacterium tuberculosis, read-out: MABA MIC MOXr
[6] = tested on: M. tuberculosis H37Rv isogenic strain resistant to cycloserine (CSr); details: Mycobacterium tuberculosis, read-out: MABA MIC CSr

CC(C)=C[C@@H]1C[C@H](C)[C@H]2CC[C@H](C)c3c2c1c(C)c1ncoc31 [Compound 1, pseudopteroxazole]
MIC [1]: 16 µg/mL (≈ 51.7 µM) | MIC [2]: 14 µg/mL (≈ 45.2 µM) | MIC [3]: 8 µg/mL (≈ 25.9 µM) | MIC [4]: 8 µg/mL (≈ 25.9 µM) | MIC [5]: 8 µg/mL (≈ 25.9 µM) | MIC [6]: 14 µg/mL (≈ 45.2 µM)

NNC(=O)c1ccncc1 [Isoniazid]
MIC [1]: 0.13 µg/mL (≈ 0.948 µM) | MIC [2]: 0.13 µg/mL (≈ 0.948 µM) | MIC [3]: > 1.1 µg/mL | MIC [4]: 0.12 µg/mL (≈ 0.875 µM) | MIC [5]: 0.03 µg/mL (≈ 0.219 µM) | MIC [6]: 0.12 µg/mL (≈ 0.875 µM)

CO[C@H]1/C=C/O[C@@]2(C)Oc3c(C)c(O)c4c(O)c(c(/C=N/N5CCN(C)CC5)c(O)c4c3C2=O)NC(=O)/C(C)=C\C=C\[C@H](C)[C@H](O)[C@@H](C)[C@@H](O)[C@@H](C)[C@H](OC(C)=O)[C@@H]1C [Rifampin, reference compound]
MIC [1]: 0.02 µg/mL (≈ 0.0243 µM) | MIC [2]: 0.08 µg/mL (≈ 0.0972 µM) | MIC [3]: 0.02 µg/mL (≈ 0.0243 µM) | MIC [4]: > 3.3 µg/mL | MIC [5]: 0.02 µg/mL (≈ 0.0243 µM) | MIC [6]: 0.01 µg/mL (≈ 0.0122 µM)

Source: paper PMC3447335, “Evaluation of Pseudopteroxazole and Pseudopterosin Derivatives against Mycobacterium tuberculosis and Other Pathogens” (Marine Drugs, 2012)
